Assay results published in US7323469B2, “7H-pyrrolo[2,3-d]pyrimidine derivatives” (Novartis AG, priority 2001, dated 2008).

melting point	SMILES
280 to 283 °C	CN(C)Cc1ccc(-c2cc3c(Nc4cccc(Cl)c4)ncnc3[nH]2)cc1.Cl
227 to 229 °C	CN1CCN(Cc2ccc(-c3cc4c(Nc5cccc(Cl)c5)ncnc4[nH]3)cc2)CC1.Cl.Cl
278 to 280 °C	Cl.Clc1cccc(Nc2ncnc3[nH]c(-c4ccc(CN5CCOCC5)cc4)cc23)c1
274 to 276 °C	CN(C)Cc1ccc(-c2cc3c(Nc4ccc(F)c(Cl)c4)ncnc3[nH]2)cc1 [Example 1, (3-Chloro-4-fluoro-phenyl)-[6-(4-dimethylaminomethyl-phenyl)-7H-pyrrolo[2,3-d]pyrimidin-4-yl]-amine]
261 to 263 °C	CC1CN(Cc2ccc(-c3cc4c(Nc5ccc(F)c(Cl)c5)ncnc4[nH]3)cc2)CC(C)N1 (stereo not drawn) [Example 8, (3-Chloro-4-fluoro-phenyl)-{6-[4-(3,5-dimethyl-piperazin-1-ylmethyl)-phenyl]-7H-pyrrolo[2,3-d]pyrimidin-4-yl}-amine]
224 to 226 °C	Fc1ccc(Nc2ncnc3[nH]c(-c4ccc(CNCCN5CCOCC5)cc4)cc23)cc1Cl [Example 8b, (3-Chloro-4-fluoro-phenyl)-(6-{4-[(2-morpholin-4-yl-ethyl-amino)-methyl]-phenyl}-7H-pyrrolo[2,3-d]pyrimidin-4-yl)-amine]
229 to 231 °C	CCN(CC)CCNCc1ccc(-c2cc3c(Nc4ccc(F)c(Cl)c4)ncnc3[nH]2)cc1 [Example 8c, N-{4-[4-(3-Chloro-4-fluoro-phenylamino)-7H-pyrrolo[2,3-d]pyrimidin-6-yl]-benzyl}-N′,N′-diethyl-ethane-1,2-diamine]
282 to 284 °C	CC(C)NCc1ccc(-c2cc3c(Nc4ccc(F)c(Cl)c4)ncnc3[nH]2)cc1 [Example 8d, (3-Chloro-4-fluoro-phenyl)-{6-[4-(iso-propylamino-methyl)-phenyl]-7H-pyrrolo[2,3-d]pyrimidin-4-yl}-amine]
248 to 250 °C	C[C@@H](Nc1ncnc2[nH]c(-c3ccc(CN4CCN(C)CC4)cc3)cc12)c1ccccc1 [Example 9, {6-[4-(4-Methyl-piperazin-1-ylmethyl)-phenyl]-7H-pyrrolo[2,3-d]pyrimidin-4-yl}-((R)-1-phenyl-ethyl)-amine]
208 to 210 °C	CC1CN(Cc2ccc(-c3cc4c(N[C@H](C)c5ccccc5)ncnc4[nH]3)cc2)CC(C)N1 (stereo partly drawn) [Example 16, {6-[4-(3,5-Dimethyl-piperazin-1-ylmethyl)-phenyl]-7H-pyrrolo[2,3-d]pyrimidin-4-yl}-((R)-1-phenyl-ethyl)-amine]
253 to 255 °C	C[C@@H](Nc1ncnc2[nH]c(-c3ccc(CNC4CCOCC4)cc3)cc12)c1ccccc1 [Example 16b, ((R)-1-Phenyl-ethyl)-(6-{4-[(tetrahydro-pyran-4-ylamino)-methyl]-phenyl}-7H-pyrrolo[2,3-d]pyrimidin-4-yl)-amine]
145 to 150 °C	CCN(CC)CCNCc1ccc(-c2cc3c(N[C@H](C)c4ccccc4)ncnc3[nH]2)cc1 [Example 16c, N,N-Diethyl-N′-{4-[4-((R)-1-phenyl-ethyl-amino)-7H-pyrrolo[2,3-d]pyrimidin-6-yl]-benzyl}-ethane-1,2-diamine]
> 300 °C	C[C@@H](Nc1ncnc2[nH]c(-c3ccc(CNC(C)(C)C)cc3)cc12)c1ccccc1 [Example 16d, {6-[4-(tert-Butylamino-methyl)-phenyl]-7H-pyrrolo[2,3-d]pyrimidin-4-yl}-((R)-1-phenyl-ethyl)-amine]
266 to 268 °C	CC(C)NCc1ccc(-c2cc3c(N[C@H](C)c4ccccc4)ncnc3[nH]2)cc1 [Example 16e, {6-[4-(isopropylamino-methyl)-phenyl]-7H-pyrrolo[2,3-d]pyrimidin-4-yl}-((R)-1-phenyl-ethyl)-amine]
236 to 238 °C	CCNCc1ccc(-c2cc3c(N[C@H](C)c4ccccc4)ncnc3[nH]2)cc1 [Example 16f, [6-(4-Ethylaminomethyl-phenyl)-7H-pyrrolo[2,3-d]pyrimidin-4-yl]-((R)-1-phenyl-ethyl)-amine]
